Source: ChEMBL document CHEMBL1629430, “2'-deoxy-2'-α-fluoro-2'-β-C-methyl 3',5'-cyclic phosphate nucleotide prodrug analogs as inhibitors of HCV NS5B polymerase: discovery of PSI-352938” (Bioorg Med Chem Lett, 2010)
pIC50: −log10 of the molar value. Blank lines part the entries; values can stand above or below the compound they belong to.

Experiments:
[1] = Cytotoxicity against human HuH7 cells; format: cell-based, Huh-7
Hepatitis C virus [2] = test: Antiviral activity against Hepatitis C virus -infected in human HuH7 cells; format: functional, Hepacivirus hominis, Huh-7
[3] = Cytotoxicity against human HepG2 cells; format: cell-based
[4] = Half life in human liver S9 fraction; format: ADME, subcellular; settings: read-out: Stability (converted)
[5] = Half life of the compound in simulated intestinal fluid; format: physicochemical; settings: for half-life: simulated intestinal fluid, read-out: Stability
Hepatitis C virus [6] = test: Antiviral activity against Hepatitis C virus harboring NS5B S282T mutant -infected in human HuH7 cells; format: functional, Hepacivirus hominis, Huh-7
[7] = Half life of the compound in simulated gastrointestinal fluid; format: physicochemical; settings: read-out: Stability (converted)
[8] = Cytotoxicity against human CEM cells; format: cell-based; settings: CEM cells (CCRF-CEM)
[9] = Half life in human plasma; format: ADME, cell-free; settings: read-out: Stability (converted)
[10] = Mitochondrial toxicity in human HepG2 cells; format: cell-based
[11] = Mitochondrial toxicity in human CEM cells; format: cell-based; settings: CEM cells (CCRF-CEM)
[12] = Cytotoxicity against human BxPC3 cells; format: cell-based, BXPC-3
Hepatitis C virus [13] = test: Antiviral activity against wild-type Hepatitis C virus -infected in human HuH7 cells; format: functional, Hepacivirus hominis, Huh-7
[14] = biological target: RNA-directed RNA polymerase (Hepacivirus hominis, UniProt O39930); test: Inhibition of HCV NS5B polymerase
RNA-directed RNA polymerase, sequence (O39930 whole entry): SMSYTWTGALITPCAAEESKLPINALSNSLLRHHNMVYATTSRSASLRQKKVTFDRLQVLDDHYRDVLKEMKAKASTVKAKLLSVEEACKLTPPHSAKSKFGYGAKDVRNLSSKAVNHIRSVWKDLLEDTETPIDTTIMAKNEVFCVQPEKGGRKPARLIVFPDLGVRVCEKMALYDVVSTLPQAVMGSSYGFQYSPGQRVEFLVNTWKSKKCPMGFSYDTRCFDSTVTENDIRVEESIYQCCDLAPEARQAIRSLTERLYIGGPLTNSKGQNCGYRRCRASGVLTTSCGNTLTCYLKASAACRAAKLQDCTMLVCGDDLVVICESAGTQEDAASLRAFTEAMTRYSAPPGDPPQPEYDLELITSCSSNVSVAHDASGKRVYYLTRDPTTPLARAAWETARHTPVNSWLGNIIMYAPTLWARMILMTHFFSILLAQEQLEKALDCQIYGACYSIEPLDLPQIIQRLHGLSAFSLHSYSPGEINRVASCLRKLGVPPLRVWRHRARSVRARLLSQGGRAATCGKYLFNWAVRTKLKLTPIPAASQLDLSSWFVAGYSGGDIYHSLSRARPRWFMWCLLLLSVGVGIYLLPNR

Liver = test: AUC (0 to 24 hrs) in rat liver; format: ADME, tissue-based; set-up: time < 24 hr; settings: in vivo
Rattus norvegicus [15] = test: Cmax in rat liver assessed as 2'-Deoxy-2'-alpha-F-2'-beta-C-methyl guanosine triphosphate level at 50 mg/kg, po; format: ADME, organism-based; set-up: dose 50 mg/kg, route oral; settings: in vivo
[16] = Drug level in Hepatitis C virus -infected human HuH7 cells assessed as cellular triphosphate level at 100 uM after 72 hrs by HPLC method; format: ADME, cell-based; settings: huh-7, 72 h
Hepatocyte = test: Drug level in human hepatocytes assessed as cellular triphosphate level at 100 uM after 72 hrs by HPLC method; format: ADME, cell-based
Rattus norvegicus [17] = test: AUC (0 to 24 hrs) in rat liver assessed as 2'-Deoxy-2'-alpha-F-2'-beta-C-methyl guanosine triphosphate level at 50 mg/kg, po; format: ADME, organism-based; set-up: time < 24 hr, dose 50 mg/kg, route oral; settings: in vivo

SMILES: CO[P@@]1(=O)OC[C@H]2O[C@@H](n3cnc4c(O)nc(N)nc43)[C@](C)(F)[C@@H]2O1
CC50 [1]: > 65 µM
EC90 (Hepatitis C virus [2]; Hepatitis C virus, Huh-7): 11.8 µM

SMILES: COP1(=O)OC[C@H]2O[C@@H](n3cnc4c(N5CCC5)nc(N)nc43)[C@](C)(F)[C@@H]2O1 (stereo partly drawn)
CC50 [3]: > 100 µM
half-life [4]: 2.53 h
CC50 [1]: > 30 µM
half-life [5]: > 20 h
EC90 (Hepatitis C virus [6]; Hepatitis C virus, Huh-7): 1.53 µM
half-life [7]: > 20 h
CC50 [8]: > 100 µM
half-life [9]: 8.33 h
CC50 [10]: > 100 µM
CC50 [11]: > 100 µM
EC90 (Hepatitis C virus [2]; Hepatitis C virus, Huh-7): 0.98 µM
CC50 [12]: > 100 µM
EC90 (Hepatitis C virus [13]; Hepatitis C virus, Huh-7): 0.98 µM

SMILES: C[C@@]1(F)[C@@H]2O[P@@](=O)(Oc3ccccc3)OC[C@H]2O[C@H]1n1cnc2c(N3CCC3)nc(N)nc21
EC90 (Hepatitis C virus [2]; Hepatitis C virus, Huh-7): 7.7 µM

SMILES: CC(C)C(=O)OC[C@H]1O[C@@H](n2ccc(N)nc2=O)[C@](C)(F)[C@@H]1OC(=O)C(C)C [MERICITABINE]
CC50 [1]: > 100 µM
EC90 (Hepatitis C virus [2]; Hepatitis C virus, Huh-7): 3.9 µM

SMILES: CCCNc1nc(N)nc2c1ncn2[C@@H]1O[C@@H]2COP(=O)(OC)O[C@H]2[C@@]1(C)F (stereo partly drawn)
CC50 [3]: > 100 µM
half-life [4]: > 24 h
CC50 [1]: > 30 µM
half-life [5]: > 20 h
EC90 (Hepatitis C virus [6]; Hepatitis C virus, Huh-7): 3.08 µM
half-life [7]: 4 h
CC50 [8]: > 100 µM
half-life [9]: 15.7 h
CC50 [10]: 14 µM
CC50 [11]: > 100 µM
EC90 (Hepatitis C virus [2]; Hepatitis C virus, Huh-7): 0.92 µM
CC50 [12]: > 100 µM
EC90 (Hepatitis C virus [13]; Hepatitis C virus, Huh-7): 0.92 µM

SMILES: C[C@@]1(F)[C@@H]2O[P@@](=O)(OC3CCC3)OC[C@H]2O[C@H]1n1cnc2c(N3CCC3)nc(N)nc21
EC90 (Hepatitis C virus [2]; Hepatitis C virus, Huh-7): 7.3 µM

SMILES: CCCCNc1nc(N)nc2c1ncn2[C@@H]1O[C@@H]2COP(=O)(OC(C)C)O[C@H]2[C@@]1(C)F (single isomer, unassigned)
EC90 (Hepatitis C virus [2]; Hepatitis C virus, Huh-7): 9.28 µM

SMILES: CCOc1nc(N)nc2c1ncn2[C@@H]1O[C@@H]2COP(=O)(Oc3ccccc3)O[C@H]2[C@@]1(C)F (stereo partly drawn)
EC90 (Hepatitis C virus [2]; Hepatitis C virus, Huh-7): 1.72 µM

SMILES: CCOc1nc(N)nc2c1ncn2[C@@H]1O[C@@H]2COP(=O)(OC)O[C@H]2[C@@]1(C)F (stereo partly drawn)
CC50 [3]: 95 µM
half-life [4]: > 24 h
CC50 [1]: > 30 µM
AUC (Liver): 8310 ng·h/g
Cmax (Rattus norvegicus [15]): 613 ng/g
Drug uptake [16]: 0.08 mM
half-life [5]: > 20 h
EC90 (Hepatitis C virus [6]; Hepatitis C virus, Huh-7): 0.4 µM
half-life [7]: > 20 h
Drug uptake (Hepatocyte): 0.12 mM
AUC (Rattus norvegicus [17]): 4090 ng·h/g
CC50 [8]: > 100 µM
half-life [9]: 8.88 h
CC50 [10]: > 100 µM
CC50 [11]: > 100 µM
EC90 (Hepatitis C virus [2]; Hepatitis C virus, Huh-7): 0.41 µM
CC50 [12]: > 100 µM
EC90 (Hepatitis C virus [13]; Hepatitis C virus, Huh-7): 0.41 µM

SMILES: CCOc1nc(N)nc2c1ncn2[C@@H]1O[C@@H]2CO[P@](=O)(OC(C)C)O[C@H]2[C@@]1(C)F (stereo in doubt; 24b)
Stability ([5]; simulated gi fluid): 18 h
EC90 (Hepatitis C virus [6]): 0.86 µM
EC90 (Hepatitis C virus [2]): 0.69 µM
EC90 (Hepatitis C virus [13]): 0.69 µM

SMILES: CCOc1nc(N)nc2c1ncn2[C@@H]1O[C@@H]2CO[P@](=O)(OC(C)C)O[C@H]2[C@@]1(C)F (stereo in doubt; 24a)
CC50 [3]: > 100 µM
half-life [4]: > 24 h
CC50 [1]: > 100 µM
AUC (Liver): 13234 ng·h/g
Drug uptake [16]: 0.41 mM
half-life [5]: > 20 h
EC90 (Hepatitis C virus [6]; Hepatitis C virus, Huh-7): 1.61 µM
half-life [7]: > 20 h
Drug uptake (Hepatocyte): 0.59 mM
AUC (Rattus norvegicus [17]): 41893 ng·h/g
CC50 [8]: > 100 µM
half-life [9]: > 24 h
CC50 [10]: > 100 µM
CC50 [11]: > 100 µM
EC90 (Hepatitis C virus [2]; Hepatitis C virus, Huh-7): 1.37 µM
CC50 [12]: > 100 µM
EC90 (Hepatitis C virus [13]; Hepatitis C virus, Huh-7): 1.37 µM

SMILES: CCCOc1nc(N)nc2c1ncn2[C@@H]1O[C@@H]2COP(=O)(OC)O[C@H]2[C@@]1(C)F (stereo partly drawn)
CC50 [1]: > 30 µM
EC90 (Hepatitis C virus [2]; Hepatitis C virus, Huh-7): 0.83 µM

SMILES: CCCCNc1nc(N)nc2c1ncn2[C@@H]1O[C@@H]2COP(=O)(Oc3ccccc3)O[C@H]2[C@@]1(C)F (single isomer, unassigned)
EC90 (Hepatitis C virus [2]; Hepatitis C virus, Huh-7): 4.76 µM

The next lines start with results.

pIC50 [14]: 5.23
SMILES: C[C@@]1(F)[C@H](O)[C@@H](COP(=O)(O)OP(=O)(O)OP(=O)(O)O)O[C@H]1n1cnc2c(=O)[nH]c(N)nc21 [PSI-352666]
CC50 [1]: > 100 µM

EC90 (Hepatitis C virus [2]; Hepatitis C virus, Huh-7): 5.05 µM
SMILES: COP1(=O)OC[C@H]2O[C@@H](n3cnc4c(OCc5ccccc5)nc(N)nc43)[C@](C)(F)[C@@H]2O1 (stereo partly drawn)

EC90 (Hepatitis C virus [2]; Hepatitis C virus, Huh-7): 7.2 µM
SMILES: COP1(=O)OC[C@H]2O[C@@H](n3cnc4c(NC5CCCC5)nc(N)nc43)[C@](C)(F)[C@@H]2O1 (stereo partly drawn)

EC90 (Hepatitis C virus [2]; Hepatitis C virus, Huh-7): 48.1 µM
SMILES: CCCCNc1nc(N)nc2c1ncn2[C@@H]1O[C@@H]2COP(=O)(OCC)O[C@H]2[C@@]1(C)F (single isomer, unassigned)

EC90 (Hepatitis C virus [2]; Hepatitis C virus, Huh-7): 69 µM
SMILES: C[C@@]1(F)[C@H](O)[C@@H](CO)O[C@H]1n1cnc2c(O)nc(N)nc21

EC90 (Hepatitis C virus [2]): 5.27 µM
SMILES: CCCOc1nc(N)nc2c1ncn2[C@@H]1O[C@@H]2CO[P@](=O)(OCCC)O[C@H]2[C@@]1(C)F (stereo in doubt; 26b)
CC50 [1]: > 11 µM

EC90 (Hepatitis C virus [2]; Hepatitis C virus, Huh-7): 1.56 µM
SMILES: COP1(=O)OC[C@H]2O[C@@H](n3cnc4c(NC5CCC5)nc(N)nc43)[C@](C)(F)[C@@H]2O1 (stereo partly drawn)

EC90 (Hepatitis C virus [2]; Hepatitis C virus, Huh-7): 18.6 µM
SMILES: CC(C)O[P@@]1(=O)OC[C@H]2O[C@@H](n3cnc4c(N5CCC5)nc(N)nc43)[C@](C)(F)[C@@H]2O1

EC90 (Hepatitis C virus [2]): 23.8 µM
SMILES: CCCOc1nc(N)nc2c1ncn2[C@@H]1O[C@@H]2CO[P@](=O)(OCCC)O[C@H]2[C@@]1(C)F (stereo in doubt; 26a)

EC90 (Hepatitis C virus [2]; Hepatitis C virus, Huh-7): 69.2 µM
SMILES: CCO[P@@]1(=O)OC[C@H]2O[C@@H](n3cnc4c(N5CCC5)nc(N)nc43)[C@](C)(F)[C@@H]2O1
